Results: US12247037B2, “1-(2,6-diazaspiro[3.3]heptan-6-yl)-5,6-dihydro-4h-benzo[f][1,2,4]triazolo[4,3-A][1,4]diazepine derivatives and related compounds as vasopressin antagonists for the treatment of neuro-psychological disorders” (Neumora Therapeutics, Inc., priority 2018, dated 2025)
Read-outs that look alike come from different tables or passages of the source.

Assays:
MDR1 (P-glycoprotein) = assay: in vitro; conditions: dog, MDCK-MDR1
[1] = target: T1, human Oxytocin Receptor (hOTR) (Homo sapiens, UniProt P30559); assay: Oxytocin receptor antagonist assay (FLIPR calcium, CHEM-1-hOTR cells); assay type: cell-based; conditions: antagonism of oxytocin (EC80) response; read-out: OT IC50
T1 construct: host or cells: CHEM-1 cells (ready-to-assay frozen cells)
T1 sequence (P30559 1-389): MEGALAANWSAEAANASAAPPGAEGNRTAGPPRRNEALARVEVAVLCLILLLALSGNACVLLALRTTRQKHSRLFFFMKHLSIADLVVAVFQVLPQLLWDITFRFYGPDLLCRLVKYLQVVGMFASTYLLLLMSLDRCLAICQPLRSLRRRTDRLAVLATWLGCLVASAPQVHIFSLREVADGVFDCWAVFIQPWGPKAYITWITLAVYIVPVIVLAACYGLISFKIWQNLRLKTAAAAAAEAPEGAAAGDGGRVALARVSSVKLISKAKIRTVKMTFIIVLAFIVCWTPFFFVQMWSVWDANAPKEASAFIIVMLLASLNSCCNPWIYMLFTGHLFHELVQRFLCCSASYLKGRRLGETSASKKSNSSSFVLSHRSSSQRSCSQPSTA
Description: This assay is performed in CHEM-1 cells expressing the human Oxytocin Receptor (hOTR) to determine the inhibitory effect of the compounds of the invention on the human Oxytocin receptor. Oxytocin evokes an increase in intracellular calcium in CHEM-1-hOTR cells which is measured in a fluorescence assay on the FLIPR^TETRA using calcium sensitive dyes. Test compounds are assessed for their ability to affect the magnitude of the response to oxytocin, with antagonists showing a concentration-dependent reduction in the oxytocin-mediated fluorescence.
CHEM-1-hOTR ready is used to assay frozen cells (Eurofins #HTS090RTA) which are supplied with a proprietary Media Component.
Day 1 of the assay: Cells are thawed in a 37° C. water bath and diluted with the supplied Media Component to a final volume of 10 ml. The cell suspension is centrifuged at 1000 rpm for 3 min at room temperature and the supernatant is discarded. […]
Day 2: At the start of each assay day the potency of oxytocin is assessed and an EC80 concentration is determined for subsequent compound profiling. […] Changes in fluorescence are monitored for 3 min after both additions on the FLIPR^TETRA using 470-495 nm excitation and 515-575 nm emission wavelengths. […] At the end of the incubation period 10 μl of oxytocin in assay buffer containing 0.1% BSA is added at the previously determined EC80 concentration. […]

[2] = target: T2, human Arginine Vasopressin Receptor 1b (AVPR1b) (Homo sapiens, UniProt P47901); assay: Vasopressin V1b receptor antagonist assay (FLIPR calcium, CHO-AVPR1b cells); assay type: cell-based; conditions: antagonism of AVP (EC80) response
T2 construct: expressed in transfected cells; host or cells: CHO (Chinese Hamster Ovary) cells, kept under G418 selection
T2 sequence (P47901 1-424): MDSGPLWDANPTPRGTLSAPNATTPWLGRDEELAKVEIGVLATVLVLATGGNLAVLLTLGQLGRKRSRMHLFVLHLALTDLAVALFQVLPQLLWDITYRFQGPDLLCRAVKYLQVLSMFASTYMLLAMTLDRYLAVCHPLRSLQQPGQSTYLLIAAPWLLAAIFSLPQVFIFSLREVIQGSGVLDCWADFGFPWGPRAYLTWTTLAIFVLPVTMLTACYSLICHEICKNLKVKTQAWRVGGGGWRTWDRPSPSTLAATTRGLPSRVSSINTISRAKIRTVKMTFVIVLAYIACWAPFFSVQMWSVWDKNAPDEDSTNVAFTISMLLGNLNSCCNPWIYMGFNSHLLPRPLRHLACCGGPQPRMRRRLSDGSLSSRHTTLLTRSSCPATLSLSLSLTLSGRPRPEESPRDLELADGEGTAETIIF
Description: The purpose of the assay is to determine the inhibitory effect of synthesized compounds on the Vasopressin V1b receptor. The assay is performed in Chinese Hamster Ovary (CHO) cells expressing the human Arginine Vasopressin Receptor 1b (AVPR1b). Arginine Vasopressin (AVP) evokes an increase in intracellular calcium in CHO-AVPR1b cells which is measured in a fluorescence assay on the FLIPR^TETRA using calcium sensitive dyes. Test compounds are assessed for their ability to affect the magnitude of the response to AVP, with antagonists showing a concentration-dependent reduction in the AVP-mediated fluorescence.
CHO-AVPR1b cells are maintained in routine culture in T175 Flasks at 37° C., 5% CO2. […]
Cells are harvested from T175 flasks when they are 80-90% confluent by first washing the cell monolayer with PBS and then dissociated using trypsin 0.05%/EDTA (3 mL for a T175 Flask). […] To the cell suspension, 10 ml of growth media is added and the cell density determined using the Vi-Cell automated cell counter. […]
At the start of each assay day, the potency of AVP is assessed and an EC80 concentration determined for subsequent compound profiling. […] Changes in fluorescence are monitored for 3 min after both additions on the FLIPR^TETRA using 470-495 nm excitation and 515-575 nm emission wavelengths. […]

in vitro = conditions: dog, MDCK
[3] = target: T3, human Arginine Vasopressin Receptor 1a (AVPR1a) (Homo sapiens, UniProt P37288); assay: Vasopressin V1a receptor antagonist assay (FLIPR calcium, CHO-AVPR1a cells); assay type: cell-based
T3 construct: expressed in transfected cells; host or cells: CHO (Chinese Hamster Ovary) cells, kept under G418 selection
Description: The purpose of this assay is to determine the inhibitory effect of synthesized compounds on the Vasopressin V1a receptor. The assay is performed in Chinese Hamster Ovary (CHO) cells expressing the human Arginine Vasopressin Receptor 1a (AVPR1a). Arginine Vasopressin (AVP) evokes an increase in intracellular calcium in CHO-AVPR1a cells which is measured in a fluorescence assay on the FLIPR^TETRA using calcium sensitive dyes. Test compounds are assessed for their ability to affect the magnitude of the response to AVP, with antagonists showing a concentration-dependent reduction in the AVP-mediated fluorescence. Compounds are tested in duplicate in a 10-point, 1:3 dilution series starting at a nominal concentration of 3 μM in the assay. […]
On day one, cells are harvested from T175 flasks when they are 80-90% confluent by first washing the cell monolayer with PBS and then dissociated using trypsin 0.05%/EDTA (3 mL for a T175 Flask). […] To the cell suspension, 10 ml of growth media is added and the cell density determined using the Vi-Cell automated cell counter. […]
At the start of each assay day, the potency of AVP is assessed and an EC80 concentration determined for subsequent compound profiling. […] At the end of the incubation period, 10 μl of AVP in assay buffer containing 0.1% BSA is added at the previously determined EC80 concentration.

[4] = target: T4, human Arginine Vasopressin Receptor V2 (AVPR2) (Homo sapiens, UniProt P30518); assay: Vasopressin V2 receptor antagonist assay (TR-FRET cAMP, 1321N1 cells); assay type: cell-based
T4 construct: host or cells: 1321N1 cells (cAMPZen V2 assay ready cells)
T4 sequence (P30518 whole entry): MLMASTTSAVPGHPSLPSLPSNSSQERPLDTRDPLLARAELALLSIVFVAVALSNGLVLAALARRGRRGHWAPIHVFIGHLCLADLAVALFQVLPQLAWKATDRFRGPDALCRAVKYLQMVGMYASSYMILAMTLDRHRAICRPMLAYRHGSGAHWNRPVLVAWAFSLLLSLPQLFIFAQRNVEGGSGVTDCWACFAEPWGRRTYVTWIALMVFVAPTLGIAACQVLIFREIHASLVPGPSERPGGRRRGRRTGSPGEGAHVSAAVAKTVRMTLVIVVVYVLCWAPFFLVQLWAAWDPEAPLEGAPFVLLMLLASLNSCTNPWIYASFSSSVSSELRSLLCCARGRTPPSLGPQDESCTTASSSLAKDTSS
Description: The purpose of the assay is to determine the inhibitory effect of synthesized compounds on the Vasopressin receptor 2. […] Arginine Vasopressin (AVP) evokes an increase in intracellular cAMP in these cells which is measured in a TR-FRET assay using a Europium cAMP tracer and ULight labelled antibody reagents contained in a LANCE Ultra cAMP kit (Perkin Elmer #TRF0263). […] Test compounds are assessed for their ability to affect the magnitude of the response to AVP, with antagonists showing a concentration-dependent decrease in the AVP-mediated reduction in TR-FRET signal.
cAMPZen V2 assay ready cells are thawed at 37° C. and resuspended directly from frozen in 9 ml growth medium consisting of DMEM supplemented with 10% v/v fetal bovine serum, 1× non-essential amino acids, and 1 mM sodium pyruvate. […] The pellet is resuspended in 5 ml stimulation buffer and the cell density determined using the Vi-Cell automated cell counter. The cell suspension is diluted to a 0.2×10^6/ml suspension ready for plating. […]
At the start of each assay day the potency of AVP is assessed and an EC80 concentration determined for subsequent compound profiling. […] After a one hour incubation, plates are ready to be read (signals then remained stable for up to 24 hours). […] At the end of the incubation period, 2.5 μl of AVP in stimulation buffer is added at the previously determined EC80 concentration.

T3 sequence (P37288 whole entry): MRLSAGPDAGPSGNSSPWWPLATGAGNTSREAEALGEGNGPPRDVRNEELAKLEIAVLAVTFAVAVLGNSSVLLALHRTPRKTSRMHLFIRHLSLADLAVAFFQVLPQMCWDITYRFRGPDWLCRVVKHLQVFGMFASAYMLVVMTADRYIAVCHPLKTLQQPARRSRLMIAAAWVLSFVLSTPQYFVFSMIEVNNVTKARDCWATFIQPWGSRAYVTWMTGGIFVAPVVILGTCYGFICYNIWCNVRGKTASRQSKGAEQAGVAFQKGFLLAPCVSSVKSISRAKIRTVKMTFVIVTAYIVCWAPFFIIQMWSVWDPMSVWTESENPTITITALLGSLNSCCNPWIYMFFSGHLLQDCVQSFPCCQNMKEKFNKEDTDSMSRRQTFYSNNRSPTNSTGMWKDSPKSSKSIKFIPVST

Compound | Papp A→B (MDR1 (P-glycoprotein)) [×10⁻⁶ cm/s] | IC50 [1] [nM] | IC50 [2] [nM] | Papp A→B (in vitro) [×10⁻⁶ cm/s] | IC50 ([3]; antagonism of AVP (EC80) response, read-out: V1a IC50) [nM] | IC50 [4] [nM] | IC50 [3] [nM]
CN1Cc2cc(Cl)ccc2-n2c(nnc2[C@H]2CC[C@H](Oc3ccccn3)CC2)C1 [balovaptan] | > 20 | > 1000 | > 1000 | 10 to 20 | < 100 | – | –
Clc1ccc2c(c1)CN(C1CC1)Cc1nnc(N3CC4(CN(c5ncccn5)C4)C3)n1-2 [Compound No. 225, 8-chloro-5-cyclopropyl-1-(6-(pyrimidin-2-yl)-2,6-diazaspiro[3.3]heptan-2-yl)-5,6-dihydro-4H-benzo[f][1,2,4]triazolo[4,3-a][1,4]diazepine] | > 20 | – | – | – | – | > 1000 | < 100
